Results taken from ChEMBL document CHEMBL5252609, “Design, synthesis, and antitumor evaluation of morpholine substituted bisnaphthalimides as DNA targeting agents” (Bioorg Med Chem Lett, 2023).

Experiments:
MGC-803 [1] = assay: Antitumor activity against human MGC-803 cells xenografted in nude mouse assessed as reduction in tumor weight at 4 mg/kg, ip administrated every other day for 21 days relative to control; format: functional; parameters: scale not given: the % may be the effect or the level left; conditions: time 21 day
CNE-2 [2] = assay: Upregulation of p27 level in human CNE-2 cells measured after 48 hrs by Western blot analysis; format: functional, cell-based; conditions: dose <= 2.0 µM
CNE-2 [3] = assay: Induction of cell cycle arrest in human CNE-2 cells assessed as accumulation of cells at G1 phase at 2 uM measured after 48 hrs by flow cytometry analysis (Rvb= 73.18%); format: functional
CNE-2 [4] = assay: Induction of apoptosis in human CNE-2 cells assessed as late apoptotic cells at 1 uM measured after 24 hrs by annexin-V-FITC and PI staining based flow cytometry analysis (reference value: 3.79%); format: functional
CNE-2 [5] = assay: Induction of cell cycle arrest in human CNE-2 cells assessed as accumulation of cells at S phase at 0.5 uM measured after 48 hrs by flow cytometry analysis (Rvb= 19.83%); format: functional
[6] = Toxicity in nude mouse xenografted with human MGC-803 cells assessed as effect on body weight at 4 mg/kg, ip administrated every other day for 21 days; format: organism-based; conditions: in vivo, 504 h, time 21 day
CNE-2 [7] = assay: Induction of cell cycle arrest in human CNE-2 cells assessed as accumulation of cells at G2 phase at 1 uM measured after 48 hrs by flow cytometry analysis (Rvb= 6.99%); format: functional
CNE-2 [8] = assay: Induction of apoptosis in human CNE-2 cells assessed as necrotic cells at 2 uM measured after 24 hrs by annexin-V-FITC and PI staining based flow cytometry analysis (reference value: 0.959%); format: functional
CNE-2 [9] = assay: Induction of apoptosis in human CNE-2 cells assessed as early apoptotic cells at 0.5 uM measured after 24 hrs by annexin-V-FITC and PI staining based flow cytometry analysis (reference value: 0.439%); format: functional
MGC-803 [10] = assay: Toxicity in nude mouse xenografted with human MGC-803 cells assessed as morphological changes in liver at 8 mg/kg, ip administrated every other day for 21 days; format: functional, organism-based; conditions: time 21.0 day
CNE-2 [11] = assay: Induction of cell cycle arrest in human CNE-2 cells assessed as accumulation of cells at S phase at 2 uM measured after 48 hrs by flow cytometry analysis (Rvb= 19.83%); format: functional
MGC-803 [12] = assay: Toxicity in nude mouse xenografted with human MGC-803 cells assessed as morphological changes in lung at 8 mg/kg, ip administrated every other day for 21 days; format: functional, organism-based; conditions: time 21.0 day
MGC-803 [13] = assay: Toxicity in nude mouse xenografted with human MGC-803 cells assessed as morphological changes in kidney at 8 mg/kg, ip administrated every other day for 21 days; format: functional, organism-based; conditions: time 21.0 day
CNE-2 [14] = assay: Induction of cell cycle arrest in human CNE-2 cells assessed as accumulation of cells at S phase measured after 48 hrs by flow cytometry analysis; format: functional, cell-based; conditions: dose 0.5-2 µM
[15] = Toxicity in nude mouse xenografted with human MGC-803 cells assessed as effect on body weight at 4 mg/kg, ip administrated every other day measured at 9 to 14 days; format: organism-based; conditions: in vivo, time 9-14 day
MGC-803 [16] = assay: Toxicity in nude mouse xenografted with human MGC-803 cells assessed as morphological changes in spleen at 8 mg/kg, ip administrated every other day for 21 days; format: functional, organism-based; conditions: time 21.0 day
MGC-803 [17] = assay: Toxicity in nude mouse xenografted with human MGC-803 cells assessed as morphological changes in heart at 8 mg/kg, ip administrated every other day for 21 days; format: functional, organism-based; conditions: time 21.0 day

| SMILES | Activity (MGC-803 [1]) [%] | Activity (CNE-2 [2]) | Activity (CNE-2 [3]) [%] | Activity (CNE-2 [4]) [%] | Activity (CNE-2 [5]) [%] | Activity [6] | Activity (CNE-2 [7]) [%] | Activity (CNE-2 [8]) [%] | Activity (CNE-2 [9]) [%] | Activity (MGC-803 [10]) | Activity (CNE-2 [11]) [%] | Activity (MGC-803 [12]) | Activity (MGC-803 [13]) | Activity (CNE-2 [14]) | Activity [15] | Activity (MGC-803 [16]) | Activity (MGC-803 [17]) |
| --- | --- | --- | --- | --- | --- | --- | --- | --- | --- | --- | --- | --- | --- | --- | --- | --- | --- |
| CN(C)CCN1C(=O)c2cccc3c(N4CCOCC4)c([N+](=O)[O-])cc(c23)C1=O | 34.4 | Dose-Dependent Effect | 38.9 | 8.53 | 20.05 | Toxic | 12.63 | 1.91 | 5.68 | Toxic | 35.62 |  |  |  |  |  |  |
| O=C1c2cccc3c(N4CCOCC4)c([N+](=O)[O-])cc(c23)C(=O)N1CCNCCN1C(=O)c2cccc3c(N4CCOCC4)c([N+](=O)[O-])cc(c23)C1=O | 44.7 | Dose-Dependent Effect | 39.09 | 7.06 | 31.78 |  | 2.69 | 13.9 | 3.7 | Toxic | 49.01 | Not toxic | Not toxic | Dose-Dependent Effect | Non-Toxic | Not toxic | Not toxic |
